The values that follow come from patent US20120077802A1 (SUNOVION PHARMACEUTICALS INC., priority 2009, published 2012).

Like-named read-outs stand apart in the source and are kept apart here.

The target of this experiment is T1, human histamine H3 receptor (Homo sapiens, UniProt Q9Y5N1).
T1 construct: host or cells: cells expressing the human H3 receptor
Briefly: H3 GTPγS assay (SPA method), histamine H3 in vitro assay. In kind it is biochemical. How it is done:
H3 GTPγS assay (SPA method) was performed at EuroScreen (Belgium, ES-392-C) using conventional methods. Briefly, cells expressing the human histamine H3 receptor were homogenized in 15 mM Tris-HCl pH 7.5, 2 mM MgCl2, 0.3 mM EDTA, and 1 mM EGTA. Membranes were washed twice in the above tris buffer, collected by centrifugation (40,000×g, 25 min), and re-suspended in 75 mM Tris-HCl pH 7.5, 12.5 mM MgCl2, 0.3 mM EDTA, 1 mM EGTA, and 250 mM sucrose. Membranes were frozen in liquid nitrogen until use. On the day of the assay, membranes were thawed and diluted in assay buffer (20 mM HEPES pH 7.4, 100 mM NaCl, 10 μg/ml saponin, 1 mM MgCl2) to give 500 μg/ml and mixed (v/v) with GDP in assay buffer for a final GDP concentration of 10 μM and incubated on ice for at least 15 min. PVT-WGA beads (Amersham, RPNQ001) were diluted in assay buffer at 50 mg/mL and mixed with GTPγ[^35S] (Amersham, SJ1308) diluted in assay buffer to give ˜25,000 dpm/10 μL, and mixed vol/vol just before the start of the reaction. The reaction was started by adding 50 μL of test compound, 20 μL of the membranes:GDP mix, 10 μL of buffer, and 20 μL of the GTPγ[^35S]:beads mix in a 96 well plate Optiplate™ (PerkinElmer, 6005299) covered with topseal (TopCount™, PerkinElmer), mixed with an orbital shaker for 2 min, incubated for 1 hour at room temperature, centrifuged for 10 min at 2000 rpm, incubated for 1 h at room temperature, and counted for 1 min in a TopCount™ reader (PerkinElmer). Dose response curves and IC50 values (concentration to inhibit the reaction by 50%) were calculated by nonlinear regression using XLfit software (IDBS).
For antagonists testing, 10 μL of a reference agonist (R-γ-Me-Histamine) instead of 10 μL buffer was added at a concentration corresponding to the EC80 (30 nM). Control ligands were R-γ-Me-Histamine (Tocris, 0569), Imetit (Sigma, I-135), Thioperamide (Tocris, 0644), and Clobenpropit (Tocris, 0754) diluted in assay buffer.
The compounds provided herein were tested in the histamine H3 in vitro assay. In one embodiment, the respective HCl salts of the compounds provided herein were prepared using standard chemical procedures and tested in the histamine H3 in vitro assay.

The mark [1] stands for this setting: GTPγ[35S] SPA, membranes of cells expressing human H3 receptor, in one embodiment HCl salts tested, read-out: Potency (functional potency as indicated by IC50).

T1 sequence (Q9Y5N1 whole entry): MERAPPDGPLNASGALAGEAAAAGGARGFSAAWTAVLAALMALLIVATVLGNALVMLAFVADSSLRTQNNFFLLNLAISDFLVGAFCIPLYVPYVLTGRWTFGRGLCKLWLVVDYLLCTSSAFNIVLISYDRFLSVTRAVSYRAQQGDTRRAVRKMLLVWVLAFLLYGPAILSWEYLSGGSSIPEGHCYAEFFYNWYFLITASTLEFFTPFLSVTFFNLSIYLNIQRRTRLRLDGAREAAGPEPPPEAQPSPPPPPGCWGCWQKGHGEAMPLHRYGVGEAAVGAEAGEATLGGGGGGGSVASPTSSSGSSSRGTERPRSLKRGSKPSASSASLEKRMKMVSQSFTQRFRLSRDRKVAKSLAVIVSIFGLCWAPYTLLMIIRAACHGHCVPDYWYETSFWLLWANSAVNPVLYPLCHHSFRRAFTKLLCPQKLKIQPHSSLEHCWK

In the case of `CN1CCC(N2CCC3(CC2)Cc2cc(-c4ccc(CN)cc4)ccc2O3)CC1` [Compound 15, (4-(1′-(1-Methylpiperidin-4-yl)-3H-spiro[benzofuran-2,4′-piperidine]-5-yl)phenyl)methanamine], under setting [1], the IC50 (usually the concentration that gives 50% inhibition) is not above 100 nM.

As for `Cn1cnc2cc(-c3ccc4c(c3)CC3(CCN(C5CCC5)CC3)O4)cnc21` [Compound 61, 1′-Cyclobutyl-5-(3-methyl-3H-imidazo[4,5-b]pyridin-6-yl)-3H-spiro[benzofuran-2,4′-piperidine]], the IC50 under setting [1] was not above 10 nM.

Regarding `N#Cc1ccc(-c2ccc3c(c2)CC2(CCN4CCCCC4C2)O3)cc1` (stereo not shown) [Compound 75, 4-(-1′,3′,4′,6′,7′,8′,9′,9a′-Octahydro-3H-spiro[benzofuran-2,2′-quinolizin]-5-yl)benzonitrile], under setting [1], the IC50 is not above 10 nM.

With `c1cc2c(cc1N1CCCCC1)OC1(CCCN(C3CCC3)CC1)C2` (stereo not shown) [Compound 71, 1-Cyclobutyl-6′-(piperidin-1-yl)-3′H-spiro[azepane-4,2′-benzofuran]], the IC50 under setting [1] was not above 100 nM.

Take `c1cc2c(cc1-c1ccc3nncn3c1)CC1(CCN(C3CCC3)CC1)O2` [Compound 63]: the IC50 under setting [1] is not above 10 nM.

For the compound `c1ccc2c(c1)ncn2-c1ccc2c(c1)CC1(CCN(C3CCC3)CC1)O2` [Compound 32, 5-(1H-Benzo[d]imidazol-1-yl)-1′-cyclobutyl-3H-spiro[benzofuran-2,4′-piperidine]], the IC50 under setting [1] is not above 10 nM.

Turning to `Cn1cc2ccc(-c3ccc4c(c3)CC3(CCN(C5CCC5)CC3)O4)cc2n1` [Compound 66, 1′-Cyclobutyl-5-(2-methyl-2H-indazol-6-yl)-3H-spiro[benzofuran-2,4′-piperidine]], the IC50 under setting [1] was not above 10 nM.

Consider `c1cn2cc(-c3ccc4c(c3)CC3(CCCN5CCCCC5C3)O4)ccc2n1` (stereo not shown) [Compound 84, 5-(imidazo[1,2-a]pyridin-6-yl)-2′,3′,4′,6′,7′,8′,10′,10a′-octahydro-1′H,3H-spiro[benzofuran-2,9′-pyrido[1,2-a]azepine]], for which, under setting [1], the IC50 is not above 100 nM.

On to “4-(1′,2′,3′,5′,6′,7′,9′,9a′-Octahydro-3H-spiro[benzofuran-2,8′-pyrrolo[1,2-a]azepin]-5-yl)benzonitrile and 4-(1′,2′,3′,5′,6′,8′,9′,9a′-octahydro-3H-spiro[benzofuran-2,7′-pyrrolo[1,2-a]azepin]-5-yl)benzonitrile [95/95a]”, for which the half-inhibitory concentration (IC50) under setting [1] was not above 100 nM.

Turning to `CN1CCC(N2CCC3(CC2)Cc2cc(-c4ccc(C#N)cc4)ccc2O3)CC1` [Compound 8, 4-(1′-(1-Methylpiperidin-4-yl)-3H-spiro[benzofuran-2,4′-piperidine]-5-yl)benzonitrile], the IC50 under setting [1] was not above 100 nM.

On to `c1cn2cc(-c3ccc4c(c3)CC3(CCN5CCCCC5C3)O4)ccc2n1` (stereo not shown) [Compound 76, 5-(Imidazo[1,2-a]pyridin-6-yl)-1′,3′,4′,6′,7′,8′,9′,9a′-octahydro-3H-spiro[benzofuran-2,2′-quinolizine]], for which the IC50 under setting [1] is not above 10 nM.

Regarding `CN1CCC(N2CCC3(CC2)Cc2ccccc2O3)CC1` [Compound 2, 1′-(1-Methylpiperidin-4-yl)-3H-spiro[benzofuran-2,4′-piperidine]], the IC50 (histamine H3 in vitro assay, read-out: IC50 values) is more than 1000 nM.

With `c1cc2cc(-c3ccc4c(c3)CC3(CCN(C5CCC5)CC3)O4)cnc2[nH]1` [Compound 55, 1′-Cyclobutyl-5-(1H-pyrrolo[2,3-b]pyridin-5-yl)-3H-spiro[benzofuran-2,4′-piperidine]], the IC50 under setting [1] was not above 100 nM.

Take `c1cc2c(cc1CN1CCOCC1)CC1(CCN3CCCCC3C1)O2` (stereo not shown) [Compound 78, 5-(Morpholinomethyl)-1′,3′,4′,6′,7′,8′,9′,9a′-octahydro-3H-spiro[benzofuran-2,2′-quinolizine]]: the IC50 under setting [1] was not above 10 nM.

For the compound `Clc1ccc2c(c1)OC1(CCCN(C3CCC3)CC1)C2` (stereo not shown) [Compound 67, 6′-Chloro-1-cyclobutyl-3′H-spiro[azepane-4,2′-benzofuran]], under setting [1], the IC50 was not above 1000 nM.

Take `CN1CCN(c2ccc3c(c2)OC2(CCN(C4CCC4)CC2)C3)CC1` [Compound 38, 1′-Cyclobutyl-6-(4-methylpiperazin-1-yl)-3H-spiro[benzofuran-2,4′-piperidine]]: the IC50 under setting [1] was not above 100 nM.
